Where two headings read alike, the source gives them in different places.
How the values were obtained:
CYP2A6 = target: T1, CYP2A6 (Homo sapiens, UniProt P11509); experiment: Direct CYP inhibition in human liver microsomes with marker probe substrates; conditions: read-out: Inhibition, IC50; HLM, CYP2A6 probe substrate
T1 sequence (P11509 1-494): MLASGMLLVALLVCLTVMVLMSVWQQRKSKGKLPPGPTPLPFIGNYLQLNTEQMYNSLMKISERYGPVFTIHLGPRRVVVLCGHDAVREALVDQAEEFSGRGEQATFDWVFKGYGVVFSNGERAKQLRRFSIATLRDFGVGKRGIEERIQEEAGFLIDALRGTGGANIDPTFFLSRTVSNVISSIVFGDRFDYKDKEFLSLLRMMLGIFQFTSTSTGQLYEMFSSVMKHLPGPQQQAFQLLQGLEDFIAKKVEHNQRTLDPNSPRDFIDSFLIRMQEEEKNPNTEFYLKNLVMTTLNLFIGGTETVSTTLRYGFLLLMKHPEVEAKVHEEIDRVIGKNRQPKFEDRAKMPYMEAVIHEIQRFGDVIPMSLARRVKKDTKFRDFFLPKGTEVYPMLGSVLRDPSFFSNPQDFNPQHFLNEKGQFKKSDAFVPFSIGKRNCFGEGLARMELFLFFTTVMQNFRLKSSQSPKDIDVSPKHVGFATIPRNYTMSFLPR

CYP1A2 = target: T2, CYP1A2 (Homo sapiens, UniProt P05177); experiment: as above; conditions: read-out: Inhibition, IC50; HLM, CYP1A2 probe substrate
T2 sequence (P05177 1-516): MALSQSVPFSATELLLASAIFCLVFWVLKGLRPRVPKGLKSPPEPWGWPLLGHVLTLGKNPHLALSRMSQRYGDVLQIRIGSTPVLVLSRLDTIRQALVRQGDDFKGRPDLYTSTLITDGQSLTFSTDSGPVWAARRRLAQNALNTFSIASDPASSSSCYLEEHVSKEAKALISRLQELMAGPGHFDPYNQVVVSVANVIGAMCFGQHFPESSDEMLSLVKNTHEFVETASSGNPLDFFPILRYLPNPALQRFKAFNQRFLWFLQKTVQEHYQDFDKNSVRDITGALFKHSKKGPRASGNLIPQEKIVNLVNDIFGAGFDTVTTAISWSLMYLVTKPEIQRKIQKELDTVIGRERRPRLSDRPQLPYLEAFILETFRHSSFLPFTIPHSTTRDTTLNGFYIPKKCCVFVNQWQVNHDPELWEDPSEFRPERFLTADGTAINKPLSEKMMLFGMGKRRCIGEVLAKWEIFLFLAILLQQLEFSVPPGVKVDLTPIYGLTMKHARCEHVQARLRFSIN

[1] = Plasma concentration 3 h post dose in murine model of tuberculosis; assay type: in vivo, BALB/c mice infected with M. tuberculosis H37Rv; conditions: TB model
CYP2D6 = CYP2D6 (Homo sapiens, UniProt P10635); experiment: Direct CYP inhibition in human liver microsomes with marker probe substrates; conditions: read-out: Inhibition, IC50; HLM, CYP2D6 probe substrate
CYP2C8 = target: T3, CYP2C8 (Homo sapiens, UniProt P10632); experiment: as above; conditions: read-out: Inhibition, IC50; HLM, CYP2C8 probe substrate
T3 sequence (P10632 1-490): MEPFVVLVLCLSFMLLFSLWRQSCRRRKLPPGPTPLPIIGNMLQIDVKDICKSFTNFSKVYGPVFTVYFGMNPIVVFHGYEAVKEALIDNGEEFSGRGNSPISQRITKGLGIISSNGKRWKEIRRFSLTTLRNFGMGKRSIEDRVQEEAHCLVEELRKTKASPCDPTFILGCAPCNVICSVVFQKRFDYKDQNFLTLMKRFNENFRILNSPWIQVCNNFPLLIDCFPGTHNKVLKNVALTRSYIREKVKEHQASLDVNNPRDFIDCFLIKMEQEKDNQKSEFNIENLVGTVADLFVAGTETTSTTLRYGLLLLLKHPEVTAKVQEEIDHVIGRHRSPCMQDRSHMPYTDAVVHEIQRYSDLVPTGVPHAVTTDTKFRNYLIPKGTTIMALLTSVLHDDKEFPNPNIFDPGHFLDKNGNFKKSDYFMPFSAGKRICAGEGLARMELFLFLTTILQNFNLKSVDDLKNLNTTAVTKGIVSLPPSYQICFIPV

[2] = Lung and spleen tissue exposure in BALB/c mice
CYP2E1 = CYP2E1 (Homo sapiens, UniProt P05181); experiment: Direct CYP inhibition in human liver microsomes with marker probe substrates; conditions: read-out: Inhibition, IC50; HLM, CYP2E1 probe substrate
CYP2C9 = CYP2C9 (Homo sapiens, UniProt P11712); experiment: as above; conditions: read-out: Inhibition, IC50; HLM, CYP2C9 probe substrate
CYP3A4 = CYP3A4 (Homo sapiens, UniProt P08684); conditions: for IC50: read-out: Inhibition, IC50, HLM
CYP3A4, sequence (P08684 2-503): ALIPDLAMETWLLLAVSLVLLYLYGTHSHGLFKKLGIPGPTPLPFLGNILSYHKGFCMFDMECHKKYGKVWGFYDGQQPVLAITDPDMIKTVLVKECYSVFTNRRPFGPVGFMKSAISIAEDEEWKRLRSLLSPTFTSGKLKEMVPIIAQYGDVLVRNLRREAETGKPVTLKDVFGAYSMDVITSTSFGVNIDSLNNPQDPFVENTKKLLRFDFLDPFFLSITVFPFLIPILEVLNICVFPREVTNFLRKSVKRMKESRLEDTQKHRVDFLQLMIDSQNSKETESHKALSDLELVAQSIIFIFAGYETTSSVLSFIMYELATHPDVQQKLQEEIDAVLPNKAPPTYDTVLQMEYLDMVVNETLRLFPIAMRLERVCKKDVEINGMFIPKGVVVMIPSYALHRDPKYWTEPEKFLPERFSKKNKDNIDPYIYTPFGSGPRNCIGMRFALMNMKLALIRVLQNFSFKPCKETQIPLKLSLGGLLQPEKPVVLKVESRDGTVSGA

CYP2E1, sequence (P05181 whole entry): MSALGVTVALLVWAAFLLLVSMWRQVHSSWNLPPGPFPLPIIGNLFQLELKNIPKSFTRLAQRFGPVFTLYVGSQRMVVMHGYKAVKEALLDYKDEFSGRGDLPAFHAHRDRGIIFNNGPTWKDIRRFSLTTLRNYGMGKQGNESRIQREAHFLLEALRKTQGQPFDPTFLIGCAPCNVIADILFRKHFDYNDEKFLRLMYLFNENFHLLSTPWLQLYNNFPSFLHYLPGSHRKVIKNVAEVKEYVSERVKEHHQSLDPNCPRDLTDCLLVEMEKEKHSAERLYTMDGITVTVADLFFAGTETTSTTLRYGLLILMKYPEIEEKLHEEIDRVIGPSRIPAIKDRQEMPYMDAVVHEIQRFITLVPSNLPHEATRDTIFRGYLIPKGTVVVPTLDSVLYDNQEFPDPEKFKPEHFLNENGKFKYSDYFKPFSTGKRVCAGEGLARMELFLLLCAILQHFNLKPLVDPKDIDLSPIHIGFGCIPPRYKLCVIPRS
CYP2C9, sequence (P11712 whole entry): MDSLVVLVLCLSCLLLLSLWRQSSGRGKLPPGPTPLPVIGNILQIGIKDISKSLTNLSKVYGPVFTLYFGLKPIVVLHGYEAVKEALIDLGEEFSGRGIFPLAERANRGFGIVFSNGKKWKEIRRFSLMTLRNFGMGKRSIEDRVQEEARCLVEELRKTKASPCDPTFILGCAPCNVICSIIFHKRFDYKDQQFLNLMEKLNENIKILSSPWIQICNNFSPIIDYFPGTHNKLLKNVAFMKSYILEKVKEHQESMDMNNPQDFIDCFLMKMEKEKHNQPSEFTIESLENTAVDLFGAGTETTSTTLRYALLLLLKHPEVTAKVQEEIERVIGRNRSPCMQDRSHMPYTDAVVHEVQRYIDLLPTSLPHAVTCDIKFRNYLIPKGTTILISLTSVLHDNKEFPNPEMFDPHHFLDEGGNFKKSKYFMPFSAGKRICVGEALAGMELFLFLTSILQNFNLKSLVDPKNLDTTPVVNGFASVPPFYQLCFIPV
CYP2D6, sequence (P10635 whole entry): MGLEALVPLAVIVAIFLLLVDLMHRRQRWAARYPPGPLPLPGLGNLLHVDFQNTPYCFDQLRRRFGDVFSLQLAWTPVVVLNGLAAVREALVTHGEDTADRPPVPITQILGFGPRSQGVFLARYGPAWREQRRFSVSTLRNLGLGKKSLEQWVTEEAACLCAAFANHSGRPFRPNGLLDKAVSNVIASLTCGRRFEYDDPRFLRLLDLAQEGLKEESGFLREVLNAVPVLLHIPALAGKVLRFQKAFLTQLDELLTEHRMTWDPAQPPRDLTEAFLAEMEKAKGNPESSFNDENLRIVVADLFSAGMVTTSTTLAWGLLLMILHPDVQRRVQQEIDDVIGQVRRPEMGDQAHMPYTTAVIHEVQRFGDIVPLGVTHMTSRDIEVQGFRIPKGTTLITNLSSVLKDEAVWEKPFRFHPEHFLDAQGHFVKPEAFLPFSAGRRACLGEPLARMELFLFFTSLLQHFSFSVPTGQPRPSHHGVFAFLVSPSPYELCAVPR

COc1ncccc1Nc1cc2nc3ccccc3n(-c3ccc(OC(F)(F)F)cc3)c-2cc1=NC1CCC(OC)CC1 (stereo not shown) [TBI-166, Pyrifazimine]
IC50 (CYP2A6): 1380 nM | IC50 (CYP1A2): 550 nM | Mean plasma concentration at three hours after oral administration ([1]; BDQ + TBI-166 group, W4): 1383.02 ± 411.59 ng/mL | Mean plasma concentration at three hours after oral administration ([1]; BDQ + TBI-166 group, W8): 1330.40 ± 133.72 ng/mL | Mean plasma concentration at three hours after oral administration ([1]; BDQ group (25 mg/kg), W4, LLOQ 5, 5, 15 ng/mL for BDQ, TBI-166, M2): <LLOQ | Mean plasma concentration at three hours after oral administration ([1]; BDQ group (25 mg/kg), W8, LLOQ 5, 5, 15 ng/mL for BDQ, TBI-166, M2): <LLOQ | Mean plasma concentration at three hours after oral administration ([1]; TBI-166 group (20 mg/kg), W4, LLOQ 5, 5, 15 ng/mL for BDQ, TBI-166, M2): 1375.79 ± 123.54 ng/mL | Mean plasma concentration at three hours after oral administration ([1]; TBI-166 group (20 mg/kg), W8, LLOQ 5, 5, 15 ng/mL for BDQ, TBI-166, M2): 1323.76 ± 311.89 ng/mL | IC50 (CYP2D6): 1600 nM | IC50 (CYP2C8): > 50000 nM | AUC(0-t) ([2]; Lung, BDQ + TBI-166 group): 321.07 ± 52.91 µg·h/g | tissue-to-plasma ratio (Kp) ([2]; Lung, BDQ + TBI-166 group): 5.17 | AUC(0-t) ([2]; Lung, TBI-166 group): 378.66 ± 104.67 µg·h/g | tissue-to-plasma ratio (Kp) ([2]; Lung, TBI-166 group): 5.49 | AUC(0-t) ([2]; Spleen, BDQ + TBI-166 group): 483.54 ± 94.75 µg·h/g | tissue-to-plasma ratio (Kp) ([2]; Spleen, BDQ + TBI-166 group): 7.79 | AUC(0-t) ([2]; Spleen, TBI-166 group): 296.09 ± 27.68 µg·h/g | tissue-to-plasma ratio (Kp) ([2]; Spleen, TBI-166 group): 4.29 | exposure (AUC0-t) with vs without coadministration ([2]; lungs): similar | increase of exposure (AUC0-t) after coadministration of BDQ with TBI-166 ([2]; spleens): 1.5 fold | IC50 (CYP2E1): 930 nM | IC50 (CYP2C9): 5450 nM | inhibitor strength class for CYP3A4 pathway (CYP3A4; based on IC50 with testosterone): moderate (1 µM < IC50 < 10 µM) | IC50 (CYP3A4; CYP3A4 MDZ (midazolam as probe substrate)): 17400 nM | IC50 (CYP3A4; CYP3A4 TEST (testosterone as probe substrate)): 2650 nM
